# Laboratory results as given in patent US11168088B2 (SHANGHAI HAIYAN PHARMACEUTICAL TECHNOLOGY CO., LTD., priority 2016, dated 2021).
# Columns and labels:
# Type in all cases: biochemical
# CDK4 = CDK4 (Homo sapiens (Human), UniProt P11802); assay: In vitro kinase test (LANCE Ultra), CDK4
# Description: (§1) Recombinant CDK1/CCNB1 and CDK9/CCNT were purchased from BPS; CDK2/CCNA1, CDK4/CCND1 and CDK6/CCND1 were purchased from Invitrogen; CDK4/CycD3 and CDK6/CycD3 were purchased from Carna. Adenosine triphosphate (ATP) was purchased from Life tech. Substrate Ulight-4EBP1 and the corresponding detection antibody were purchased from Perkinelmer. The detection system was Perkinelmer's LANCE Ultra system.
# (§2) In the kinase test, a compound to be tested was 1:3 diluted for 8 gradient points, added into a reaction plate, and then added an appropriate amount of recoinbinase. A buffer [50 mM HEPES […], 10 mM MgCl2, 3 mM MnCl2, 1 mM EGTA, 0.01% Tween-20, 1 mM TCEP] containing ATP/Ulight-4EBP1 premix with predetermined concentration was subsequently added, and the kinase reaction was started at room temperature. A test solution pre-mixed with 10 mM EDTA and detection antibody was added after a suitable reaction time, and then the fluorescence value was read on Tecan infinite pro after reacting for 1 hour at room temperature. The IC50 was calculated using a four-factor model fitting in a XLfit software.
# CDK6 = CDK6 (Homo sapiens (Human), UniProt Q00534); assay: In vitro kinase test (LANCE Ultra), CDK6
# Description: as §1, §2
# CDK1 = CDK1 (Homo sapiens (Human), UniProt P06493); assay: In vitro kinase test (LANCE Ultra), CDK1
# Description: as §1, §2
# CDK2 = CDK2 (Homo sapiens (Human), UniProt P24941); assay: In vitro kinase test (LANCE Ultra), CDK2
# Description: as §1, §2
# Sequence of CDK6 (Q00534 whole entry, looked up): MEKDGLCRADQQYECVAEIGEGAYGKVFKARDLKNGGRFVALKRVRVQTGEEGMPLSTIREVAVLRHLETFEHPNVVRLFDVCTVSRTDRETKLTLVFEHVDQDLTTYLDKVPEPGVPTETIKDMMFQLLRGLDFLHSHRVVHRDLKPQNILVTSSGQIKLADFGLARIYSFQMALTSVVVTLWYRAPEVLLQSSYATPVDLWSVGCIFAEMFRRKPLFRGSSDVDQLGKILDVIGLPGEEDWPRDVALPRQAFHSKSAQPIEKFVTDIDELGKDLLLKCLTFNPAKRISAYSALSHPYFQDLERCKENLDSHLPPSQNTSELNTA
# Sequence of CDK6 (P24385 whole entry partner, looked up): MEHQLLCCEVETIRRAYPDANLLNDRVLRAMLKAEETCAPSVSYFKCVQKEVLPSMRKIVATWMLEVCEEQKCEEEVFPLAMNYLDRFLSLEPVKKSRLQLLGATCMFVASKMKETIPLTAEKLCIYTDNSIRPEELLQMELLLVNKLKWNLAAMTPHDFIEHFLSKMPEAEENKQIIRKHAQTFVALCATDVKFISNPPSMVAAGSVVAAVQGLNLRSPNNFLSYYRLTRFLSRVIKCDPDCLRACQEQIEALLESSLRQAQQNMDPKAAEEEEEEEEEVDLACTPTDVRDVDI
# Sequence of CDK4 (P11802 whole entry, looked up): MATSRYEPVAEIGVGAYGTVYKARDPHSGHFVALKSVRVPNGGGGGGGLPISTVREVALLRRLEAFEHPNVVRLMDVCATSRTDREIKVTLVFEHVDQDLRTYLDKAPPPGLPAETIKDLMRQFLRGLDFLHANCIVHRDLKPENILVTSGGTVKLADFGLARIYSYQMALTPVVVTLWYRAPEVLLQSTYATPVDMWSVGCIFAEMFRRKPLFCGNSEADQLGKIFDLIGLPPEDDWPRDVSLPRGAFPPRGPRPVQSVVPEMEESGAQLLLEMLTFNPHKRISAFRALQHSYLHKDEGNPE
# Sequence of CDK4 (P24385 whole entry partner, looked up): as the sequence (P24385 whole entry partner, looked up) above
# Sequence of CDK1 (P06493 whole entry): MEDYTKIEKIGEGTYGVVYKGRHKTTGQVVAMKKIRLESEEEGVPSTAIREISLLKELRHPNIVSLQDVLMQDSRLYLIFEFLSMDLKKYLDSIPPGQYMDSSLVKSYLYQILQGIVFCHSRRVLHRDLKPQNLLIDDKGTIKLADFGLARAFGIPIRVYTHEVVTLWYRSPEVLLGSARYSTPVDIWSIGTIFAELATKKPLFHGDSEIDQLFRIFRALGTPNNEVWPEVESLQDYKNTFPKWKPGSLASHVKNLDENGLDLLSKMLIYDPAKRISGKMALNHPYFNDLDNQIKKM
# Sequence of CDK1 (P14635 whole entry partner): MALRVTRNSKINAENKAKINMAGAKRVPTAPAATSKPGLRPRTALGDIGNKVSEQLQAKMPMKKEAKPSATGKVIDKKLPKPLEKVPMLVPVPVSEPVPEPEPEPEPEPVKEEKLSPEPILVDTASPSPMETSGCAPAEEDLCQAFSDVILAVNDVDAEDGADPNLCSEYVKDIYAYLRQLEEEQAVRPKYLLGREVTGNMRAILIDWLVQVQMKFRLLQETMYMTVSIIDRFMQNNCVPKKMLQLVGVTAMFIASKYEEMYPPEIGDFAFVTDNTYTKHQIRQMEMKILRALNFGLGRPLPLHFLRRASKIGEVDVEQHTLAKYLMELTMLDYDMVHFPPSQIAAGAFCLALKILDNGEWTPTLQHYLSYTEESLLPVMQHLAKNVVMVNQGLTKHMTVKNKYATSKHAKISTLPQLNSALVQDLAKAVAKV
IC50 (CDK4),IC50 (CDK6),IC50 (CDK1),IC50 (CDK2),inhibitory activity against CDK4 (in words) (CDK4),inhibitory activity against CDK6 (in words) (CDK6),inhibitory activity against CDK1 (in words) (CDK1),inhibitory activity against CDK2 (in words) (CDK2),SMILES
41 nM,121 nM,–,–,–,–,–,–,Cc1nc2c(n1CC1CC1)-c1nc(Nc3ccc(N4CCNCC4)cn3)ncc1C2 [Compound P-28]
6 nM,33 nM,–,–,–,–,–,–,"CC(C)n1nc(C#N)c2c1-c1nc(Nc3ccc(N4CCNCC4)cn3)ncc1CC2 [Compound P-52, 1-isopropyl-8-(5-(piperazin-1-yl)pyridin-2-ylamino)-4,5-dihydro-1H-pyrazolo[4,3-H]quinazolin-3-carbonitrile]"
3 nM,11 nM,3570 nM,816 nM,–,–,–,–,"Cc1nc2c(n1C(C)C)-c1nc(Nc3ccc(N4CCNCC4)cn3)ncc1CC2 [Compound P-24, 1-isopropyl-2-methyl-N-(5-(piperazin-1-yl)pyridin-2-yl)-4,5-dihydro-1H-imidazo[4,5-H]quinazolin-8-amine]"
8 nM,35 nM,818 nM,469 nM,–,–,–,–,CCn1nc2c(c1C(C)C)-c1nc(Nc3ccc(N4CCNCC4)cn3)ncc1CC2(C)C [Compound P-46]
35 nM,706 nM,6370 nM,5050 nM,–,–,–,–,CCc1nc2c(n1CC)-c1nc(Nc3ccc(N4CCNCC4)cn3)ncc1C2 [Compound P-21]
20 nM,43 nM,–,–,–,–,–,–,CCc1nc2c(n1C(C)C)-c1nc(Nc3ccc(N4CCNCC4)cn3)ncc1C2 [Compound P-22]
5 nM,20 nM,1020 nM,523 nM,–,–,–,–,"CC(C)c1c2c(nn1C)CCc1cnc(Nc3ccc(N4CCNCC4)cn3)nc1-2 [Compound P-14, 9-isopropyl-8-methyl-N-(5-(piperazin-1-yl)pyridin-2-yl)-6,8-dihydro-5H-pyrazolo[3,4-H]quinazolin-2-amine]"
6 nM,42 nM,8530 nM,9850 nM,–,–,–,–,CCN1CCN(c2ccc(Nc3ncc4c(n3)-c3c(nn(C)c3C(C)C)C4)nc2)CC1 [Compound P-7]
10 nM,161 nM,> 10000 nM,8250 nM,–,–,–,–,CC(C)c1c2c(nn1C)Cc1cnc(Nc3ccc(N4CCNCC4)cn3)nc1-2 [Compound P-8]
5 nM,33 nM,7960 nM,4760 nM,–,–,–,–,"CCn1nc2c(c1C(C)C)-c1nc(Nc3ccc(N4CCNCC4)cn3)ncc1CC2 [Compound P-4, 8-ethyl-9-isopropyl-N-(5-(piperazin-1-yl)pyridin-2-yl)-6,8-dihydro-5H-pyrazolo[3,4-H]quinazolin-2-amine]"
7 nM,17 nM,> 1000 nM,457 nM,–,–,–,–,"CC(C)c1[nH]nc2c1-c1nc(Nc3ccc(N4CCNCC4)cn3)ncc1CC2 [Compound P-29, 9-isopropyl-N-(5-(piperazin-1-yl)pyridin-2-yl)-6,8-dihydro-5H-pyrazolo[3,4-H]quinazolin-2-amine]"
43 nM,165 nM,–,–,–,–,–,–,Cc1nc2c(n1C1CC1)-c1nc(Nc3ccc(N4CCNCC4)cn3)ncc1C2 [Compound P-11]
7 nM,70 nM,–,–,–,–,–,–,CCn1nc2c(c1C(C)C)-c1nc(Nc3ccc(N4CCNCC4)cn3)ncc1OC2 [Compound P-49]
97 nM,897 nM,–,–,–,–,–,–,CCn1nc2c(c1C(C)C)-c1nc(Nc3ccc(N4CCNCC4)cn3)ncc1C(C)(C)C2 [Compound P-48]
3 nM,58 nM,942 nM,803 nM,–,–,–,–,CC(C)c1c2c(nn1C)C1(CC1)c1cnc(Nc3ccc(N4CCNCC4)cn3)nc1-2 [Compound P-57]
6 nM,8 nM,–,–,–,–,–,–,CC(C)c1c2c(nn1C(F)F)Cc1cnc(Nc3ccc(N4CCNCC4)cn3)nc1-2 [Compound P-27]
9 nM,31 nM,> 10000 nM,–,–,–,–,–,"CC(C)n1ncc2c1-c1nc(Nc3ccc(N4CCNCC4)cn3)ncc1CC2 [Compound P-25, 1-isopropyl-N-(5-(piperazin-1-yl)pyridin-2-yl)-4,5-dihydro-1H-pyrazolo[4,3H]quinazolin-8-amine]"
103 nM,831 nM,–,–,–,–,–,–,CC(C)c1c2c(nn1C)CC1(CC1)c1cnc(Nc3ccc(N4CCNCC4)cn3)nc1-2 [Compound P-56]
17 nM,222 nM,4320 nM,1290 nM,–,–,–,–,CC(C)c1c2c(nn1C)C(C)(C)c1cnc(Nc3ccc(N4CCNCC4)cn3)nc1-2 [Compound P-42]
5 nM,46 nM,706 nM,510 nM,–,–,–,–,CC(C)c1c2c(nn1C)C(C)c1cnc(Nc3ccc(N4CCNCC4)cn3)nc1-2 (centres unmarked) [Compound P-47]
10 nM,263 nM,> 10000 nM,5980 nM,–,–,–,–,CC(C)c1c2c3nc(Nc4ccc(N5CCNCC5)cn4)ncc3n(C)c2nn1C [Compound P-58]
173 nM,415 nM,–,–,–,–,–,–,CC(C)c1c2c(nn1C)CC(C)(C)c1cnc(Nc3ccc(N4CCNCC4)cn3)nc1-2 [Compound P-44]
128 nM,523 nM,–,–,–,–,–,–,CC(=O)C1(C)Cc2cnc(Nc3ccc(N4CCNCC4)cn3)nc2-c2c1nn(C)c2C(C)C (centres unmarked) [Compound P-55]
160 nM,762 nM,–,–,–,–,–,–,"CC(C)c1c2c(nn1C)C(C)(C(C)O)Cc1cnc(Nc3ccc(N4CCNCC4)cn3)nc1-2 (centres unmarked) [Compound P-60, 1-(9-isopropyl-6,8-dimethyl-2-(5-(piperazin-1-yl)pyridin-2-ylamino)-6,8-dihydro-5H-pyrazolo[3,4-H]quinazolin-6-yl)ethanol]"

# More lines, now with the values behind:
SMILES,IC50 (CDK4),IC50 (CDK6),IC50 (CDK1),IC50 (CDK2),inhibitory activity against CDK4 (in words) (CDK4),inhibitory activity against CDK6 (in words) (CDK6),inhibitory activity against CDK1 (in words) (CDK1),inhibitory activity against CDK2 (in words) (CDK2)
CCc1nc2c(n1C(C)C)-c1nc(Nc3ccc(CN4CCN(CC)CC4)cn3)ncc1C2 [Compound P-5],22 nM,256 nM,5310 nM,–,–,–,–,–
"Cc1c2c(nn1C)CCc1cnc(Nc3ccc(N4CCN(C)CC4)cc3)nc1-2 [Compound D1, reference compound]",–,–,–,–,strong inhibitory activity,strong inhibitory activity,strong inhibitory activity,strong inhibitory activity
c1cc(Nc2ncc3c(n2)-c2c(cnn2C2CCOC2)CC3)ncc1N1CCNCC1 (centres unmarked) [Compound P-37],41 nM,362 nM,–,–,–,–,–,–
c1cc(Nc2ncc3c(n2)-c2c(nc(C4CC4)n2C2CCCC2)C3)ncc1N1CCNCC1 [Compound P-39],33 nM,184 nM,1040 nM,2330 nM,–,–,–,–
c1cc(Nc2ncc3c(n2)-c2c(cnn2C2CCCCC2)CC3)ncc1N1CCNCC1 [Compound P-35],74 nM,252 nM,–,–,–,–,–,–
Cc1c2c(nn1C)CCc1cnc(Nc3ccc(N4CCN(C)CC4)cn3)nc1-2 [Compound P-66],23 nM,63 nM,926 nM,674 nM,–,–,–,–
CC(C)n1ncc2c1-c1nc(Nc3ccc(N4CCNCC4)cn3)ncc1CC2(C)C [Compound P-51],42 nM,117 nM,–,–,–,–,–,–
Cc1nc2c(n1C1CCCC1)-c1nc(Nc3ccc(N4CCNCC4)cn3)ncc1C2 [Compound P-13],23 nM,43 nM,5650 nM,8320 nM,–,–,–,–
CCN1CCN(c2ccc(Nc3ncc4c(n3)-c3c(cnn3C(C)C)CC4)nc2)CC1 [Compound P-12],8 nM,36 nM,> 10000 nM,–,–,–,–,–
Cc1nn(C2CCCC2)c2c1CCc1cnc(Nc3ccc(N4CCNCC4)cn3)nc1-2 [Compound P-43],9 nM,46 nM,–,–,–,–,–,–
Cc1nc2sc3cnc(Nc4ccc(N5CCNCC5)cn4)nc3c2n1C(C)C [Compound P-65],1070 nM,> 3000 nM,–,–,–,–,–,–
CCN1CCN(Cc2ccc(Nc3ncc4c(n3)-c3c(nn(CC)c3C(C)C)C4)nc2)CC1 [Compound P-45],37 nM,451 nM,–,–,–,–,–,–
CCN1CCN(Cc2ccc(Nc3ncc4c(n3)-c3c(cnn3C(C)C)CC4)nc2)CC1 [Compound P-10],16 nM,132 nM,–,–,–,–,–,–
"c1cc(Nc2ncc3c(n2)-c2c(cnn2C2CCCC2)CC3)ncc1N1CCNCC1 [Compound P-9, 1-cyclopentyl-N-(5-(piperazin-1-yl)pyridin-2-yl)-4,5-dihydro-1H-pyrazolo[4,3H]quinazolin-8-amine]",8 nM,40 nM,5170 nM,1440 nM,–,–,–,–
CCc1nc2c(n1C1CCCC1)-c1nc(Nc3ccc(N4CCNCC4)cn3)ncc1C2 [Compound P-34],23 nM,394 nM,651 nM,1720 nM,–,–,–,–
CCN1CCN(Cc2ccc(Nc3ncc4c(n3)-c3c(nc(C)n3C(C)C)CC4)nc2)CC1 [Compound P-41],5 nM,44 nM,–,–,–,–,–,–
c1cc(Nc2ncc3c(n2)-c2nn(C4CCCC4)cc2CC3)ncc1N1CCNCC1 [Compound P-36],138 nM,714 nM,–,–,–,–,–,–
CC(=O)C1(C)Cc2cnc(Nc3ccc(N4CCNCC4)cn3)nc2-c2c1ncn2C(C)C (centres unmarked) [Compound P-63],56 nM,160 nM,–,–,–,–,–,–
CCN1CCN(Cc2ccc(Nc3ncc4c(n3)-c3c(nn(CC)c3C(C)C)CC4)nc2)CC1 [Compound P-2],4 nM,38 nM,427 nM,–,–,–,–,–
CCN1CCN(Cc2ccc(Nc3ncc4c(n3)-c3c(nn(CC)c3C(C)C)C(C)(C)C4)nc2)CC1 [Compound P-50],6 nM,40 nM,–,–,–,–,–,–
